Test results as given in PubChem BioAssay (NCI).
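48-hour exposure; five concentrations; linearly interpolated endpoints. The concentration for 50% growth inhibition is given as GI50. TGI is the concentration that stops growth completely.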

What was measured:
Test in all cases: NCI tumour cell line growth inhibition, 48 h
SW-620 colon = test system: SW-620 colon
HCC-2998 colon = test system: HCC-2998 colon
HOP-92 NSCLC = test system: HOP-92 NSCLC
HS 578T breast = test system: HS 578T breast
HCT-116 colon = test system: HCT-116 colon
CAKI-1 renal = test system: CAKI-1 renal
NCI/ADR-RES ovarian = test system: NCI/ADR-RES ovarian
HL-60(TB) leukemia = test system: HL-60(TB) leukemia
MALME-3M melanoma = test system: MALME-3M melanoma
SR leukemia = test system: SR leukemia

CCOc1cccc(-c2nc(N)nc(Nc3ccccc3SSc3ccccc3Nc3nc(N)nc(-c4cccc(OCC)c4)n3)n2)c1
GI50 (SW-620 colon): 4.56 µM
TGI (SW-620 colon): > 100 µM
GI50 (HCC-2998 colon): > 100 µM
TGI (HCC-2998 colon): > 100 µM
GI50 (HOP-92 NSCLC): 2770 nM
TGI (HOP-92 NSCLC): 9.86 µM
GI50 (HS 578T breast): 6.37 µM
TGI (HS 578T breast): > 100 µM
GI50 (HCT-116 colon): 3.95 µM
TGI (HCT-116 colon): > 100 µM
GI50 (CAKI-1 renal): 3.29 µM
TGI (CAKI-1 renal): 28.3 µM
GI50 (NCI/ADR-RES ovarian): 3.32 µM
TGI (NCI/ADR-RES ovarian): > 100 µM
GI50 (HL-60(TB) leukemia): 2140 nM
TGI (HL-60(TB) leukemia): 6.09 µM
GI50 (MALME-3M melanoma): 5.63 µM
TGI (MALME-3M melanoma): > 100 µM

O=C(/C(=C\c1ccc(Cl)cc1)c1ccccc1)c1ccccc1
TGI (SW-620 colon): > 100 µM
TGI (HCC-2998 colon): > 100 µM
TGI (HOP-92 NSCLC): > 100 µM
TGI (HCT-116 colon): > 100 µM
TGI (SR leukemia): > 100 µM
TGI (HL-60(TB) leukemia): 36.3 µM
TGI (MALME-3M melanoma): > 100 µM

COc1cc2c(cc1OC)C1Cc3cc(OC)c(OC)cc3C(C2)N1C
TGI (SW-620 colon): > 100 µM
TGI (HCC-2998 colon): > 100 µM
TGI (HOP-92 NSCLC): > 75 µM
TGI (HS 578T breast): > 75 µM
TGI (HCT-116 colon): > 75 µM
TGI (CAKI-1 renal): > 100 µM
TGI (NCI/ADR-RES ovarian): > 75 µM
TGI (HL-60(TB) leukemia): > 75 µM
TGI (MALME-3M melanoma): > 100 µM

c1ccc2c(c1)N=C(c1cccc3ccccc13)CC(c1ccc3c(c1)OCO3)S2 (stereo not drawn)
TGI (SW-620 colon): > 100 µM
TGI (HCC-2998 colon): > 100 µM
TGI (HCT-116 colon): > 100 µM
TGI (CAKI-1 renal): > 100 µM
TGI (SR leukemia): > 100 µM
TGI (HL-60(TB) leukemia): > 100 µM
TGI (MALME-3M melanoma): > 100 µM

C=C(C(=C)P(=S)(c1ccccc1)c1ccccc1)P(=S)(c1ccccc1)c1ccccc1
TGI (SW-620 colon): > 100 µM
TGI (HCC-2998 colon): > 100 µM
TGI (HOP-92 NSCLC): > 100 µM
TGI (HCT-116 colon): > 100 µM
TGI (CAKI-1 renal): > 100 µM
TGI (HL-60(TB) leukemia): > 100 µM
TGI (MALME-3M melanoma): > 100 µM

COC(=O)C1=C(C(=O)OC)C2(C)Nc3ccccc3C2=C(c2ccccc2)C1 (stereo not drawn)
TGI (SW-620 colon): 69.6 µM
TGI (HCC-2998 colon): 64.2 µM
TGI (HOP-92 NSCLC): 38.9 µM
TGI (HCT-116 colon): 44 µM
TGI (HL-60(TB) leukemia): 41.5 µM
TGI (MALME-3M melanoma): 37.1 µM

CC#CC1C2CCCC1(CSc1ccccc1)NC(=O)O2 (stereo not drawn)
TGI (SW-620 colon): > 100 µM
TGI (HCC-2998 colon): > 100 µM
TGI (HOP-92 NSCLC): > 100 µM
TGI (HCT-116 colon): > 100 µM
TGI (CAKI-1 renal): > 100 µM
TGI (SR leukemia): > 100 µM
TGI (HL-60(TB) leukemia): > 100 µM
TGI (MALME-3M melanoma): > 100 µM

CC(C)NC(=O)CCN(C(=O)O)S(=O)(=O)c1ccc(NC(=O)c2ccccc2)cc1
TGI (SW-620 colon): > 52.4 µM
TGI (HCC-2998 colon): > 100 µM
TGI (HOP-92 NSCLC): > 100 µM
TGI (HCT-116 colon): > 54.1 µM
TGI (CAKI-1 renal): > 100 µM
TGI (SR leukemia): > 83 µM
TGI (HL-60(TB) leukemia): > 64 µM
TGI (MALME-3M melanoma): > 100 µM

COc1cc([N+](=O)[O-])c(OC)cc1-c1nc2sc(Cl)cn2c1/C=N/NC1=NCCN1
GI50 (HCC-2998 colon): 0.597 µM
TGI (HCC-2998 colon): 1.22 µM
GI50 (HS 578T breast): 2.22 µM
TGI (HS 578T breast): 4.94 µM
GI50 (HCT-116 colon): 0.249 µM
TGI (HCT-116 colon): 0.616 µM
GI50 (CAKI-1 renal): 12.9 µM
TGI (CAKI-1 renal): 51.7 µM
GI50 (SR leukemia): 228 nM
TGI (SR leukemia): 0.45 µM
GI50 (NCI/ADR-RES ovarian): > 100 µM
TGI (NCI/ADR-RES ovarian): > 100 µM

CC(=O)[CH-]C(=O)c1ccccc1.CC(=O)[CH-]C(=O)c1ccccc1.C[C@]12CCC(=O)C=C1CC[C@@H]1C2CC[C@@]2(C)C1CC[C@@H]2[O-].C[C@]12CCC(=O)C=C1CC[C@@H]1C2CC[C@@]2(C)C1CC[C@@H]2[O-].Cl.[Ti+4] (stereo partly drawn)
GI50 (SW-620 colon): 17.5 µM
TGI (SW-620 colon): 43.7 µM
GI50 (HCC-2998 colon): 21.8 µM
TGI (HCC-2998 colon): 42.2 µM
GI50 (HCT-116 colon): 27.6 µM
TGI (HCT-116 colon): > 100 µM
GI50 (CAKI-1 renal): 13.8 µM
TGI (CAKI-1 renal): 46.4 µM
GI50 (HL-60(TB) leukemia): 8820 nM
TGI (HL-60(TB) leukemia): 69.1 µM
GI50 (MALME-3M melanoma): 20.1 µM
TGI (MALME-3M melanoma): 46.8 µM

CCNC(=O)O/N=C1\CCC2[C@@H]3CC=C4C[C@@H](OC5CCCCO5)CC[C@]4(C)C3CC[C@]12C (stereo partly drawn)
TGI (SW-620 colon): 6.04 µM
TGI (HCC-2998 colon): 8.51 µM
TGI (HOP-92 NSCLC): 7.34 µM
TGI (HCT-116 colon): > 100 µM
TGI (CAKI-1 renal): 6.19 µM

COc1cc(/C=C2\C[C@H]3[C@@H]4CC=C5C[C@@H](O)CC[C@]5(C)[C@H]4CC[C@]3(C)[C@H]2O)ccc1OCCCn1ccnc1
GI50 (HCC-2998 colon): 8.22 µM
TGI (HCC-2998 colon): 16.1 µM
GI50 (HOP-92 NSCLC): 4440 nM
TGI (HOP-92 NSCLC): 12.5 µM
GI50 (HS 578T breast): 1.18 µM
TGI (HS 578T breast): 4.24 µM
GI50 (CAKI-1 renal): 1.81 µM
TGI (CAKI-1 renal): 7.86 µM
GI50 (NCI/ADR-RES ovarian): 13.6 µM
TGI (NCI/ADR-RES ovarian): > 50 µM
GI50 (HL-60(TB) leukemia): 2790 nM
TGI (HL-60(TB) leukemia): 15.9 µM

Clc1cc(Cl)cc(N2N=C(c3cccc(Nc4ccncc4)c3)CC2c2ccc3c(c2)OCO3)c1 (stereo not drawn)
GI50 (SW-620 colon): 1.67 µM
TGI (SW-620 colon): 3.29 µM
GI50 (HCC-2998 colon): 1.84 µM
TGI (HCC-2998 colon): 3.37 µM
GI50 (HOP-92 NSCLC): 1390 nM
TGI (HOP-92 NSCLC): 2.82 µM
GI50 (HCT-116 colon): 1.7 µM
TGI (HCT-116 colon): 3.42 µM
GI50 (CAKI-1 renal): 1.54 µM
TGI (CAKI-1 renal): 2.9 µM

OCCN1CCN2C=C(C3CCCC4N(CCO)CCN34)CCC21 (stereo not drawn)
TGI (SW-620 colon): > 67.9 µM
TGI (HCC-2998 colon): > 100 µM
TGI (HOP-92 NSCLC): > 100 µM
TGI (HCT-116 colon): > 87.2 µM
TGI (CAKI-1 renal): > 100 µM
TGI (SR leukemia): 26.3 µM
TGI (HL-60(TB) leukemia): 24 µM
TGI (MALME-3M melanoma): > 100 µM

Cc1ccccc1-n1c2nc(=O)n(C)c(=O)c-2nc2ccccc21
TGI (SW-620 colon): 28.1 µM
TGI (HCC-2998 colon): 24.2 µM
TGI (HCT-116 colon): 28.3 µM
TGI (CAKI-1 renal): 48.9 µM
TGI (HL-60(TB) leukemia): 35.8 µM
TGI (MALME-3M melanoma): 16.8 µM

CCCCCCCCCCCCOC1C(CNC(=O)C2OC3OC(C)(C)OC3C2NC(=O)Nc2ccc(CC(=O)NC(Cc3ccccc3)C(=O)O)cc2)OC2OC(C)(C)OC21 (stereo not drawn)
GI50 (SW-620 colon): > 25 µM
TGI (SW-620 colon): > 25 µM
GI50 (HCC-2998 colon): > 25 µM
TGI (HCC-2998 colon): > 25 µM
GI50 (HOP-92 NSCLC): > 25000 nM
TGI (HOP-92 NSCLC): > 25 µM
GI50 (HS 578T breast): 9.2 µM
TGI (HS 578T breast): > 25 µM
GI50 (HCT-116 colon): > 25 µM
TGI (HCT-116 colon): > 25 µM
GI50 (CAKI-1 renal): > 25 µM
TGI (CAKI-1 renal): > 25 µM
GI50 (NCI/ADR-RES ovarian): > 25 µM
TGI (NCI/ADR-RES ovarian): > 25 µM
GI50 (HL-60(TB) leukemia): > 25000 nM
TGI (HL-60(TB) leukemia): > 25 µM
GI50 (MALME-3M melanoma): > 25 µM
TGI (MALME-3M melanoma): > 25 µM

Cc1ccc(NC(=O)/C(Cl)=C(/Cl)C(=O)O)cc1
TGI (SW-620 colon): 29.9 µM
TGI (HCC-2998 colon): 34.3 µM
TGI (HOP-92 NSCLC): 32.6 µM
TGI (HCT-116 colon): 28.2 µM
TGI (CAKI-1 renal): 31.1 µM
TGI (SR leukemia): 53.6 µM
TGI (HL-60(TB) leukemia): 4.36 µM
TGI (MALME-3M melanoma): 29.3 µM

CN1CCN(C)C12C=CC=CC21CC1
TGI (SW-620 colon): > 100 µM
TGI (HCC-2998 colon): > 100 µM
TGI (HOP-92 NSCLC): > 100 µM
TGI (HCT-116 colon): > 100 µM
TGI (CAKI-1 renal): > 100 µM
TGI (SR leukemia): > 100 µM
TGI (HL-60(TB) leukemia): > 100 µM
TGI (MALME-3M melanoma): > 100 µM

Clc1ccc(-c2c(C3=NCCCN3)nnn2-c2ccccc2)cc1
TGI (SW-620 colon): 46.7 µM
TGI (HCC-2998 colon): > 100 µM
TGI (HOP-92 NSCLC): > 100 µM
TGI (HCT-116 colon): > 100 µM
TGI (CAKI-1 renal): > 100 µM
TGI (SR leukemia): > 100 µM
TGI (HL-60(TB) leukemia): 36.6 µM
TGI (MALME-3M melanoma): > 100 µM

NN1C(=O)C(CCO)S/C1=N/N=C1/SC(CCO)C(=O)N1N (stereo not drawn)
TGI (SW-620 colon): > 100 µM
TGI (HCC-2998 colon): > 100 µM
TGI (HOP-92 NSCLC): > 100 µM
TGI (HCT-116 colon): > 100 µM
TGI (CAKI-1 renal): > 100 µM
TGI (SR leukemia): > 100 µM
TGI (HL-60(TB) leukemia): > 100 µM
TGI (MALME-3M melanoma): > 100 µM

NNC(=O)N/N=C1\C(=O)N(c2ccc(Cl)c(Cl)c2)C(=O)C(=O)C1c1nc2ccccc2s1 (stereo not drawn)
TGI (SW-620 colon): > 100 µM
TGI (HCC-2998 colon): > 100 µM
TGI (HOP-92 NSCLC): > 100 µM
TGI (HCT-116 colon): > 100 µM
TGI (CAKI-1 renal): > 100 µM
TGI (SR leukemia): > 100 µM
TGI (HL-60(TB) leukemia): > 100 µM
TGI (MALME-3M melanoma): > 100 µM
